The structures appear in SMILES notation.

The source of these data is US5786355A, “4,6-diarylpyrimidine derivatives and salts thereof” (Taiho Pharmaceutical Co., Ltd., priority 1995, dated 1998).

The first test deals with HUVEC (human umbilical vein endothelial cell). As to the kind of experiment: HUVEC growth inhibition (3H-thymidine uptake). Format: cell-based. The following applies: 3000 cells per well, RPMI-1640 with ECGS, EGF and 2% serum, 48 hours + 17 hours with 3H-thymidine, control as 100%, read-out: IC50 (concentration showing a 50% growth inhibitory activity). The method, then:
To a 96-well microplate, HUVEC (human umbilical vein endothelial cell; product of Kurabo Industries Ltd.) was added in an amount of 3000 cells per well, followed by culturing in 200 μl of RPMI-1640 medium (Nissui Pharmaceutical Co., Ltd.) containing 10 μg/ml of ECGS (Endothelial Cell Growth Supplement; Collaborative Co., Ltd.), 3 ng/ml of EGF ([…]; product of Genzyme Co., Ltd.) and 2% fatal calf serum at 37° C. for 48 hours using 5% CO2. To each well, 0.1 μCi (3.7 KBq) of ^3 H-Tymidine was added, followed by culturing for 17 hours. Then, the cells were collected on a glass filter and washed with 5% trichloroacetic acid and ethanol. The radioactivity taken in was measured by a β-plate (Pharmacia Laboratories, Inc.). The concentration showing a 50% growth inhibitory activity (IC50) was calculated with a control as 100%.
For `COc1cc(OC)c(-c2cc(-c3cc(OC)c(OC)cc3OC)nc(N(C)C)n2)cc1OC` [Compound 2], the IC50 came out at 220 nM. The same measure, in the same setting: for `COc1cc(OC)c(-c2cc(-c3cc(OC)c(OC)cc3OC)nc(N)n2)cc1OC` [Compound 3] the value was 250 nM. For the molecule `COc1cc(OC)c(-c2cc(-c3ccc(OCCN(C)C)cc3)nc(N(C)C)n2)cc1OC` [Compound 8], the IC50 turned out to be 1100 nM. Consider `CCN(CC)c1nc(-c2cc(OC)c(OC)cc2OC)cc(-c2cc(OC)c(OC)cc2OC)n1` [Compound 9], for which the IC50 amounted to 360 nM. As to `CCN(CC)c1nc(-c2ccc(OC)cc2OC)cc(-c2cc(OC)c(OC)cc2OC)n1` [Compound 17], the IC50 came to 530 nM. Still for that read-out and setting: for `CCN(CC)c1nc(-c2cc(OC)c(OC)c(OC)c2)cc(-c2cc(OC)c(OC)cc2OC)n1` [Compound 20, 2-diethylamino-4-(3,4,5-trimethoxyphenyl)-6-(2,4,5-trimethoxyphenyl)pyrimidine] the value was 530 nM; for `COc1cc(OC)c(-c2cc(-c3cc(OC)c(O)c(OC)c3)nc(N(C)C)n2)cc1OC` [Compound 24], 210 nM. Same read-out and setting: with `COc1cc(NS(C)(=O)=O)c(-c2cc(-c3cc(OC)c(OC)cc3OC)nc(N(C)C)n2)cc1OC` [Compound 27] the figure was 68 nM. Still for that read-out and setting: for `COc1cc(OC)c(-c2cc(-c3nccs3)nc(N(C)C)n2)cc1OC` [Compound 30] the value was 700 nM; for `COc1cc(OC)c(-c2cc(-c3cc(OC)c(OC)cc3OC)nc(NS(C)(=O)=O)n2)cc1OC` [Compound 31], 520 nM. As for `CCN(CC)c1nc(-c2ccc(OCCN3CCCCC3)cc2)cc(-c2cc(OC)c(OC)cc2OC)n1` [Compound 41], the IC50 was 1700 nM. Still for that read-out and setting: with `CCN(CC)c1nc(-c2ccc(OP(=O)(O)O)cc2)cc(-c2cc(OC)c(OC)cc2OC)n1` [Compound 43] the figure was 330 nM.

Test system in a further test: not given
Test: not given
The conditions noted are these: J. INDIAN CHEM. SOC., 70, 266-267(1993); cited from earlier work.
As to `COc1ccc(-c2cc(-c3ccc(OC)c(OC)c3)nc(N)n2)c(OC)c1` [2-amino-4-(2,4-dimethoxyphenyl)-6-(3,4-dimethoxyphenyl)pyrimidine], the antibacterial activity result is on record as “no antibacterial activity”.
